Measurements published in US20260191998A1, “INDOLE PHTHALOCYANINE COMPOUND, PREPARATION METHOD THEREFOR, AND USE THEREOF IN TUMOR DIAGNOSIS IMAGING” (JIANGSU YAHONG MEDITECH CO., LTD., priority 2022, published 2026).
Where a name gives a salt, the structure may show the parent alone.

Columns and labels:
[1] = Kinetic solubility in phosphate buffered saline (HPLC); format: physicochemical; details: phosphate buffered saline (PBS), aqueous buffer, kinetic from dmso stock, 25° C., shaken 2 hours, from 10 mM DMSO stock
Description: The compounds were weighed in an appropriate amount and dissolved in DMSO to prepare a 10 mM stock solution. 30 μL of the stock solution was taken and 970 μL of phosphate buffered saline solution (PBS) was added thereto. The solution was shaken at 25° C. on a thermostatic mixer for 2 hours, and centrifuged at 12000 rpm for 10 minutes. The supernatant was taken, and the kinetic solubility of each compound in phosphate buffered saline solution (PBS) was determined by Waters Acquity Arc HPLC.

[2] = molecular target: hERG channels (Homo sapiens, UniProt Q12809); experiment: hERG whole-cell patch clamp in HEK 293 cells stably expressing hERG; format: cell-based; details: HEK 293 stably expressing hERG, tail current
Description: The HEK 293 cell line (K1236) stably expressing hERG was purchased from Invitrogen. Cells were cultured in 85% DMEM, 10% dialyzed FBS, 0.1 mM NEAA, 25 mM HEPES, 100 U/mL penicillin-streptomycin, 5 μg/mL blasticidin and 400 μg/mL geneticin. Cells were split using TrypLE™ about three times a week, and maintained at a confluence of about 40% to about 80%. Before measurement, cells were cultured at a density of 5×10^5 in a 6 cm culture dish and induced with 1 μg/mL doxycycline for 48 hours.
Extracellular solution (mM): 132 NaCl, 4 KCl, […], 0.5 MgCl2, 11.1 glucose, 10 HEPES (pH 7.35 adjusted with NaOH);
Intercellular solution (mM): 140 KCl, 2 MgCl2, 10 EGTA, 10 HEPES, 5 MgATP (pH 7.35 adjusted with KOH).
The test compounds were formulated in DMSO to prepare a stock solution with a final concentration of 10 mM.
Then, the stock solution of each compound was diluted with DMSO in a 1:3 serial dilution to prepare five intermediate solutions with concentrations of 3, 1, 0.33, 0.12, 0.04 mM or 3.33, 1.11, 0.37, 0.12 mM, respectively.
Before testing, the final working solutions were prepared by diluting the intermediate solutions 1000 times with the extracellular solution. The concentration of DMSO in the working solutions was within a range around 0.1%.
The working solutions at five different concentrations of 3, 1, 0.33, 0.12 and 0.04 μM were used to determine the potential inhibition effect of the compounds on hERG channels and to fit concentration-response curves and calculate IC50.
The coverslip was removed from the cell culture dish and placed on a microscope stage.
A 10× objective was used to locate cells to be observed. An electrode tip was located under the microscope using the 10× objective by focusing above the plane of the cells. Once the tip was in focus, the electrode was advanced downward towards the cells under rough control of the manipulator, while the objective was moved so as to keep the tip in focus.
When the electrode was directly over a cell, the objective was switched to a 40× objective and fine control of the manipulator was used to enable to gradually approach the cell surface.
With gentle suction through a side port of an electrode holder, a giga-ohm seal was formed.
Cfast was used to eliminate the capacitive current consistent with the voltage step. Brief and strong suction was applied repeatedly until the membrane patch ruptured and the whole-cell configuration was obtained.
At this point, membrane potential was set to −60 mV in order to ensure that hERG channels were not open. Then, Cslow on the amplifier was used to remove the spikes of capacitive current.
Holding potential was set to −90 mV for 500 ms. Current was recorded at 20 kHz and filtering was carried out at 10 kHz. Leak current was tested at −80 mV for 500 ms.
The hERG current was elicited by depolarizing at +30 mV for 4.8 seconds, and then the voltage was restored to −50 mV for 5.2 seconds to remove the inactivation and observe the deactivating tail current. The maximum of tail current size was used to determine hERG current amplitude.
Current was recorded for 120 seconds to evaluate the current stability. Only stable cells with recording parameters above thresholds were used for drug administrations.
Firstly, vehicle control was applied to the cells to establish the baseline. […] The hERG current in the presence of the test compound was recorded for about 5 minutes to reach a steady state, and then 5 sweeps were captured. For dose-response testing, multiple compounds were applied to the cells cumulatively from low to high concentrations (multiple compounds were detected simultaneously). The positive control, Dofetilide at a concentration of 150 nM, was also applied to each cell post hERG current measurement at the highest concentration of the test compound, which was used as an internal low control for normalization of percentage inhibition. […]

[3] = UV-VIS absorption spectra (optical property test); format: physicochemical; details: 10 μM, DMSO solution; for Absorbance × 10^4: at maximum absorption peak
Description: The UV-VIS absorption spectra of the compounds (10 μM, DMSO solution) were detected using Shimadzu UV2600 spectrophotometer, and the maximum absorption peak and absorbance of each compound were obtained.

[4] = system: human bladder cancer cell line UM-UC-3; experiment: In vitro imaging effect test with addition of BSP, UM-UC-3; format: cell-based; details: 250 μM BSP, compound 1-20 μM with surfactin 1:5, 30 minutes
Description: UM-UC-3 (1.5×10^4/well) were cultured in EMEM medium (containing 10% fetal bovine serum (FBS) and 1% antibiotics (100 U/mL penicillin and 100 U/mL streptomycin)) and seeded in a 96-well plate in advance. The plate was cultured in a 5% CO2 cell culture incubator at 37° C. overnight. The following day, the culture medium was sucked away, and 250 μM of BSP was added to the test wells and preconditioned for 10 minutes, followed by addition of the culture medium containing an appropriate concentration (1-20 μM) of the compound and surfactin (the molar ratio of the test compound to the surfactin being 1:5) with or without 250 μM of BSP, and then incubated for 30 minutes. The cells were rinsed three times with PBS solution, and the near-infrared fluorescence intensity in the bladder cancer cells was observed using an integrated fluorescence microscopic imaging system from Keyence. The conditions for near-infrared photography were Ex=775/50 nm and Em=845/55 nm.

[5] = system: RT112 tumor; experiment: Tumor/background ratio in subcutaneous RT112 tumor model mice; format: in vivo; details: 2 mpk intraperitoneal, 48 hours after injection
Description: The subcutaneous tumor model mice inoculated with RT112 tumor were selected. Each compound was administrated at a dose of 2 mpk, and intraperitoneally injected.

[6] = system: RT112 tumor; details: 2 mg/kg or 0.4 mg/kg intraperitoneal, 48 hours after injection
Description: All animal experiments were conducted exactly in accordance with the guidelines for the care and use of animals issued by the regional animal committee. A mouse model of xenograft RT112 tumor was established by subcutaneous injection of RT112 cell suspension (2×10^6 cells/mouse, 0.1 ml PBS) into the upper right limb of 8- to 10-week-old BALB/C female nude mice (20 to 25 g). BABL/c nude mice (15 to 20 g) were purchased from Beijing Vital River Laboratory Animal Technology Co., Ltd. For in vivo near-infrared fluorescence (NIRF) imaging, the RT112 tumor-bearing mice were intraperitoneally injected with different doses of free compounds (2 mg/kg or 0.4 mg/kg), respectively. At 48 hours after injection, near-infrared imaging was performed using an IVIS Lumina spectroscopic imaging system (excitation/emission, 780/845 nm).

Chain of hERG channels (Q12809 whole entry): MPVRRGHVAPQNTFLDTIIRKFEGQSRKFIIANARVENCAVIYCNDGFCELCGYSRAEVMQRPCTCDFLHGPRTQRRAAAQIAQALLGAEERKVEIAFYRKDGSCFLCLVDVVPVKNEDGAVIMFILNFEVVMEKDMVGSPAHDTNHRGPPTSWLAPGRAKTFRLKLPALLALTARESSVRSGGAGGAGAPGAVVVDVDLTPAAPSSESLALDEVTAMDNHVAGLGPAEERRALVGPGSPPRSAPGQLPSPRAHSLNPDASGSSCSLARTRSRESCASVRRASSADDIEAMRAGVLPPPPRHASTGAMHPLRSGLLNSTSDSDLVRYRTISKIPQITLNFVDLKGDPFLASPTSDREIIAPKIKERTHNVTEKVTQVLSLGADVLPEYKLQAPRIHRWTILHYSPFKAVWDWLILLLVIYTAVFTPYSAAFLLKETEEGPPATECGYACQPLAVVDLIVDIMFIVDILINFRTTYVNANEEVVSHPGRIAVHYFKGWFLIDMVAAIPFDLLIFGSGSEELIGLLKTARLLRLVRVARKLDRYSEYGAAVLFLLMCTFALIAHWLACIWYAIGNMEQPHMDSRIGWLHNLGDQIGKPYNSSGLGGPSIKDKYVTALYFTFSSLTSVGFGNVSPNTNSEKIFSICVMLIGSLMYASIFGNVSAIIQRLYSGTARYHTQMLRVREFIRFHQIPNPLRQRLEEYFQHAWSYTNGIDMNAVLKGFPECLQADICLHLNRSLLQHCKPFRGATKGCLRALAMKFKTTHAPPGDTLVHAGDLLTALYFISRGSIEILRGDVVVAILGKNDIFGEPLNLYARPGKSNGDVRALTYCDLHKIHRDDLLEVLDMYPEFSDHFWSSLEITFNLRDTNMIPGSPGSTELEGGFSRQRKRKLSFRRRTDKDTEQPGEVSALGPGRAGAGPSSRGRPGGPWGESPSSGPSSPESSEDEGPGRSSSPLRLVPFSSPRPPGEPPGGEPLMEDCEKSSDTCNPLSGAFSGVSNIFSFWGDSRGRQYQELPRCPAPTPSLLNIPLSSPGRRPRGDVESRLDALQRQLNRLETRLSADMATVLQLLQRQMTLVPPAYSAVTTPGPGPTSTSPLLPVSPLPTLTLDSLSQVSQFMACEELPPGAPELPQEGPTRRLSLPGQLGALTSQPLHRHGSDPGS

Compound	solubility kinetic at 2 h [1]	IC50 [2]	Absorption peak [3]	Absorbance × 10^4 [3]	Uptake by UM-UC-3 with or without BSP [4]	Tumor/background ratio [5]	Enrichment at the tumor sites (NIR fluorescence) [6]
C[N+]1=C(/C=C/C2=C(Cl)C(=C/C=C3/N(CCCCCC(=O)O)c4ccccc4C3(C)C)/CC2)C(C)(C)c2ccccc21 [Example 10, 2-((E)-2-((E)-3-(2-((E)-1-(5-carboxypentyl)-3,3-dimethylindolin-2-ylidene)ethenyl)-2-chlorocyclopent-1-en-1-yl)ethenyl)-1,3,3-trimethyl-3H-indol-1-ium Chloride]	26 µg/mL	1330 nM	821 nm	2.08	may be weakened or enhanced by BSP	3.3	specifically enriched at the tumor sites
CC[N+]1=C(/C=C/C2=C(Cl)C(=C/C=C3/N(CCOCC(=O)Oc4ccccc4)c4ccccc4C3(C)C)/CCC2)C(C)(C)c2ccccc21 [Example 8, 2-((E)-2-((E)-2-chloro-3-(2-((E)-3,3-dimethyl-1-(2-(2-oxo-2-phenoxyethoxy)ethyl)indolin-2-ylidene)ethenyl)cyclohex-1-en-1-yl)ethenyl)-1-ethyl-3,3-dimethyl-3H-indol-1-ium Trifluoroacetate]	–	–	794.5 nm	1.96	may be weakened or enhanced by BSP	–	specifically enriched at the tumor sites
CC[N+]1=C(/C=C/C2=C(Cl)C(=C/C=C3/N(CCOCCC(=O)Oc4ccccc4)c4ccccc4C3(C)C)/CCC2)C(C)(C)c2ccccc21 [Example 7, 2-((E)-2-((E)-2-chloro-3-(2-((E)-3,3-dimethyl-1-(2-(3-oxo-3-phenoxypropoxy)ethyl)indolin-2-ylidene)ethenyl)cyclohex-1-en-1-yl)ethenyl)-1-ethyl-3,3-dimethyl-3H-indol-1-ium Trifluoroacetate]	–	–	794.5 nm	1.92	may be weakened or enhanced by BSP	–	specifically enriched at the tumor sites
